Reference: patent US6531472B2, “Tetralone derivatives” (Hoffman-La Roche Inc., priority 2000, dated 2003)

Test system: HDAC
Assay: HDAC inhibition screening assay using an aminocoumarin derivative of an omega-acetylated lysine as substrate
Format: biochemical
Details: compound concentration 10 nM
Experimental: To measure the HDAC inhibitory properties of the compounds of the invention a screening assay was established using an aminocoumarin derivative of an omega-acetylated lysine as substrate for the enzyme. […] Using the protocol described therein, the inhibitory effect of the new compounds was determined at a concentration of 10 nM.

Row | SMILES | Inhibitory effect at 10 nM in % [%]
1 | COc1cccc2c1CCC(CCCCCC(=O)NO)C2=O (stereo not drawn) [Example 8] | 72
2 | CCOC(=O)C1(CCCCCCCC(=O)NO)CCc2c(C)cc(C)cc2C1=O (stereo not drawn) [Example 10, 2-(7-Hydroxycarbamoyl-heptyl)-5,7-dimethyl-1-oxo-1,2,3,4-tetrahydro-naphtalene-2-carboxylic acid ethyl ester] | 55
3 | COc1ccc2c(c1)CCC(CCCCC(=O)NO)C2=O (stereo not drawn) [Example 2, 5-(6-methoxy-1-oxo-1,2,3,4-tetrahydro-naphthalen-2-yl)-pentanoic acid hydroxyamide] | 64
4 | CCOC(=O)C1(CCCCCC(=O)NO)CCc2c(OC)cccc2C1=O (stereo not drawn) [Example 9, 2-(5-hydroxycarbamoyl-pentyl)-5-methoxy-1-oxo-1,2,3,4-tetrahydro-naphtalene-2-carboxyclic acid ethyl ester] | 57
5 | CC1(CCCCCC(=O)NO)CCc2ccccc2C1=O (stereo not drawn) [Example 4, 6-(2-methyl-1-oxo-1,2,3,4-tetrahydro-naphthalen-2-yl)-hexanoic acid hydroxyamide] | 71
6 | CC1(/C=C/CCCC(=O)NO)CCc2ccccc2C1=O (stereo not drawn) [Example 7, 6-(2-methyl-1-oxo-1,2,3,4-tetrahydro-naphthalen-2-yl)-hex-5-enoic acid hydroxyamide] | 60
